Laboratory results: paper PMC7826463, “Pamiparib dose escalation in Chinese patients with non‐mucinous high‐grade ovarian cancer or advanced triple‐negative breast cancer” (Cancer Medicine, 2020)
Several values for one entry are separate records, joined by “and”; a condition that tells them apart may be missing. Equal entries are not always repeated. Entries after “also recorded” stand apart in the source; their conditions may differ. Where two headings read alike, the source gives them in different places.

Assays:
[1] = tested on: triple-negative breast cancer (TNBC); assay: Antitumor activity per RECIST v1.1 (best overall response, ORR, CBR, PFS) in patients with TNBC; type: in vivo, human
Description: (§1) Secondary objectives were assessment of PK parameters and antitumor activity. Blood samples for the PK analysis were collected at Cycle 1 on Days 1, 2, and 3. Pharmacokinetic sampling was performed at Cycle 1 on Day 1 (predose and at 0.5, 1, 2, 4, 6, 9, and 12 hours postdose), Day 2, Day 3, and Day 10 (predose and at 0.5, 1, 2, 4, 6, 9, and 12 hours postdose); then at Cycles 2 and 3 on Day 1 (predose and at 2 hours postdose). […] Tumor assessments were performed by the investigators at screening, every 6 weeks after the first dose of pamiparib in the 1st year, and every 12 weeks thereafter until progression, per RECIST v1.1. Patients completed the study at the time of their safety follow‐up visit; therefore, radiological assessment of disease progression was not performed after the safety follow‐up visit. Approximately 14 to 18 evaluable patients were expected to enroll in the phase 1 part of the study. The safety population included all patients who received ≥1 dose of pamiparib. The PK population included all patients for whom valid pamiparib PK parameters could be estimated. Antitumor activity per RECIST v1.1 was assessed in all evaluable patients. […] The population evaluable for CA‐125 response included patients in the safety population with baseline CA‐125 ≥2 x upper limit of normal. Descriptive statistics were used to summarize all study data. Continuous variables included the number of non‐missing observations, mean, standard deviation, median, minimum, and maximum. Categorical variables were summarized by their frequency and percentage. Progression‐free survival was estimated using the Kaplan–Meier method and the corresponding 95% confidence interval (CI) was constructed using Greenwood's formula. Standard PK parameters (i.e., area under the plasma concentration‐time curve [AUC] from time of drug administration; maximum plasma concentration [Cmax]; time to Cmax; elimination half‐life [t1/2]; apparent clearance; and apparent volume of distribution during terminal phase) were estimated and derived using standard non‐compartmental methods.

[2] = Plasma pharmacokinetics of pamiparib, single dose and steady state, non-compartmental; type: in vivo, human; conditions: for CL/F / Cmax / AUC(0-t) / AUC(0-inf): geometric mean (geometric CV%); for Cmax / AUC(0-t) / half-life / Tmax / AUC(0-inf): human, plasma; for half-life: geometric mean (range)
Description: as §1

[3] = tested on: PARP1/2; conditions: cited from earlier work
[4] = TNBC (n = 5), RECIST efficacy-evaluable
[5] = TNBC (n = 5), RECIST efficacy-evaluable, 20-60 mg BID
[6] = TNBC (n=6), Kaplan-Meier, NE, not estimable

With `C[C@]12CCCN1CC1=NNC(=O)c3cc(F)cc4[nH]c2c1c34` [pamiparib, Pamiparib] the “Clinical benefit rate (CR+PR+SD ≥24 weeks)” value [1, 4] was 0 % (95% CI), the “Disease control rate (CR+PR+SD)” value [1, 4] was 0 % (95% CI) and the “Objective response rate (CR+PR)” value [1, 4] was 0 % (95% CI). The “Best overall response: Complete response” value [1, 5] was 0 n (%), the “Best overall response: Partial response” value [1, 5] was 0 n (%) and the “Best overall response: Stable disease” value [1, 5] was 0 n (%). For the same compound, the “Median PFS (95% CI)” value ([1]; TNBC (n=6), Kaplan-Meier) was 1.5 (1.45–1.61) months, the “Event-free rate at 3 months (95% CI)” value [1, 6] was 0 (NE–NE) % and the “Event-free rate at 6 months (95% CI)” value [1, 6] was 0 (NE–NE) %. The “Event-free rate at 9 months (95% CI)” value [1, 6] was 0 (NE–NE) %, the “PFS Events” value ([1]; TNBC (n=6), safety population) was 5 (83.3) n (%) and the “PFS events: Disease progression” value ([1]; TNBC (n=6), safety population) was 5 n (%) and 5 (83.3) n (%). For the same compound, the “Accumulation ratio, AUC0-12” value ([2]; 20 mg BID, n 4) was 2.05, the “Accumulation ratio, Cmax” value ([2]; 20 mg BID, n 4) was 1.78 and the “Accumulation ratio, AUC0-12” value ([2]; 40 mg BID, n 4) was 3.95. For the same compound, the “Accumulation ratio, Cmax” value ([2]; 40 mg BID, n 4) was 3.19, the “Accumulation ratio, AUC0-12” value ([2]; 60 mg BID, n 5) was 3.4 and 3.36 and the “Accumulation ratio, Cmax” value ([2]; 60 mg BID, n 5) was 2.6 and 2.62. For the same compound, the CL/F ([2]; Single dose, 20 mg BID cohort, N 4) was 1.95 (44) L/hr, the CL/F ([2]; Single dose, 40 mg BID cohort, N 4) was 2.07 (61) L/hr and the CL/F ([2]; Single dose, 60 mg BID cohort, N 7) was 2.19 (79) L/hr. For the same compound, the “Dose proportionality of plasma exposure (AUC and Cmax)” value ([2]; between 20 mg and 60 mg BID, after a single dose) was “increased near proportionally; also recorded: near dose‐proportional”, the Cmax ([2]; oral, 20 mg, Single dose, 20 mg BID cohort, N 4, plasma) was 718 ng/mL and the AUC(0-t) ([2]; oral, 20 mg, Single dose, 20 mg BID cohort, N 4, read-out: AUC0-9) was 4130 ng·h/mL. The AUC(0-t) ([2]; oral, 20 mg, Single dose, 20 mg BID cohort, N 4, read-out: AUC0-12) was 5030 ng·h/mL, the half-life ([2]; oral, 20 mg, Single dose, 20 mg BID cohort, N 4) was 12.1 h and the Tmax ([2]; oral, 20 mg, Single dose, 20 mg BID cohort, N 4, median (range), read-out: Tmax) was 1.01 h. The Cmax ([2]; oral, 20 mg, Steady state (Cycle 1 Day 10), 20 mg BID, N 4) was 1280 ng/mL, the AUC(0-t) ([2]; oral, 20 mg, Steady state (Cycle 1 Day 10), 20 mg BID, N 4, read-out: AUC0-9) was 8360 ng·h/mL and the AUC(0-t) ([2]; oral, 20 mg, Steady state (Cycle 1 Day 10), 20 mg BID, N 4, read-out: AUC0-12) was 10300 ng·h/mL. It also gave a Tmax ([2]; oral, 20 mg, Steady state (Cycle 1 Day 10), 20 mg BID, N 4, median (range), read-out: Tmax) of 1.04 h, a Cmax ([2]; oral, 40 mg, Single dose, 40 mg BID cohort, N 4, plasma) of 1630 ng/mL and an AUC(0-t) ([2]; oral, 40 mg, Single dose, 40 mg BID cohort, N 4, read-out: AUC0-9) of 8560 ng·h/mL. The AUC(0-t) ([2]; oral, 40 mg, Single dose, 40 mg BID cohort, N 4, read-out: AUC0-12) was 10400 ng·h/mL, the half-life ([2]; oral, 40 mg, Single dose, 40 mg BID cohort, N 4) was 11.8 h and the Tmax ([2]; oral, 40 mg, Single dose, 40 mg BID cohort, N 4, median (range), read-out: Tmax) was 0.98 h. The Cmax ([2]; oral, 40 mg, Steady state (Cycle 1 Day 10), 40 mg BID, N 4) was 5210 ng/mL, the AUC(0-t) ([2]; oral, 40 mg, Steady state (Cycle 1 Day 10), 40 mg BID, N 4, read-out: AUC0-9) was 32500 ng·h/mL and the AUC(0-t) ([2]; oral, 40 mg, Steady state (Cycle 1 Day 10), 40 mg BID, N 4, read-out: AUC0-12) was 40900 ng·h/mL. It also gave a Tmax ([2]; oral, 40 mg, Steady state (Cycle 1 Day 10), 40 mg BID, N 4, median (range), read-out: Tmax) of 1.1 h, a Cmax ([2]; oral, 60 mg, Single dose, 60 mg BID cohort, N 7, plasma) of 2300 ng/mL and an AUC(0-t) ([2]; oral, 60 mg, Single dose, 60 mg BID cohort, N 7, read-out: AUC0-9) of 11900 ng·h/mL. The AUC(0-t) ([2]; oral, 60 mg, Single dose, 60 mg BID cohort, N 7, read-out: AUC0-12) was 14800 ng·h/mL, the half-life ([2]; oral, 60 mg, Single dose, 60 mg BID cohort, N 7) was ~14 h and the Tmax ([2]; oral, 60 mg, Single dose, 60 mg BID cohort, N 7, median (range), read-out: Tmax) was 1.13 h. The Cmax ([2]; oral, 60 mg, Steady state (Cycle 1 Day 10), 60 mg BID, N 5) was 5860 ng/mL, the AUC(0-t) ([2]; oral, 60 mg, Steady state (Cycle 1 Day 10), 60 mg BID, N 5, read-out: AUC0-9) was 38100 ng·h/mL and the AUC(0-t) ([2]; oral, 60 mg, Steady state (Cycle 1 Day 10), 60 mg BID, N 5, read-out: AUC0-12) was 47100 ng·h/mL. It also gave a Tmax ([2]; oral, 60 mg, Steady state (Cycle 1 Day 10), 60 mg BID, N 5, median (range), read-out: Tmax) of 1.13 h, an AUC(0-inf) ([2]; oral, Single dose, 20 mg BID cohort, N 4) of 10200 ng·h/mL and an AUC(0-inf) ([2]; oral, Single dose, 40 mg BID cohort, N 4) of 19300 ng·h/mL. For the same compound, the AUC(0-inf) ([2]; oral, Single dose, 60 mg BID cohort, N 7) was 27500 ng·h/mL, the Tmax ([2]; po, 60 mg, oral administration, RP2D of 60 mg BID, read-out: median Tmax) was ~1 h and the “Plasma exposure after a single dose compared with FIH study” value ([2]; single-dose administration) was “similar”. For the same compound, the “Steady-state exposure compared with FIH study” value ([2]; steady state) was “slightly higher” and the “Potency relative to olaparib (fold more potent)” value [3] was 10 fold.
